Results reported in paper PMC2765569 (Biochemistry, 2009).

Key:
[1] = biological target: FTase (wild-type protein farnesyltransferase) (Rattus norvegicus, UniProt Q02293+Q04631); test: Single-turnover; assay type: biochemical; conditions: 800 nM FTase, 200 nM FPP, 25 μM peptide, 5 μM MDCC-PBP, 34 units mL^−1 PPiase, 50 mM HEPPSO pH 7.8, 5 mM TCEP, 5 mM MgCl2, 25 °C; for Single turnover rate constant kSTO, X=S: dansyl-GCVa2S panel
[2] = biological target: FTase (Rattus norvegicus, UniProt Q02293+Q04631); test: Radioactive assay of FTase-catalyzed farnesylation; assay type: biochemical; conditions: data not shown, farnesylated slowly
Chain of FTase (Q02293 whole entry, one chain of several): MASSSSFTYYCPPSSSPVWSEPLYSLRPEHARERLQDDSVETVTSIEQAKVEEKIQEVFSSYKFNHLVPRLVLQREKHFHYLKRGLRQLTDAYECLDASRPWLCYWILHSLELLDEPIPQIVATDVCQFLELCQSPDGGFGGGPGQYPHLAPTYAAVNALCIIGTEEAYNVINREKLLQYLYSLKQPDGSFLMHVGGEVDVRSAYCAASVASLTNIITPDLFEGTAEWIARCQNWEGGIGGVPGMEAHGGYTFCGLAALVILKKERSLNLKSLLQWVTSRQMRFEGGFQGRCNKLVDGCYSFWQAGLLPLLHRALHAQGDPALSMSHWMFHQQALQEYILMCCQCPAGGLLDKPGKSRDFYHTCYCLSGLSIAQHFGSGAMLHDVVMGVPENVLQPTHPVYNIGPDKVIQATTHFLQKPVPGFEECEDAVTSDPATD

dansyl-GCVGS was tested, and the “Single turnover rate constant kSTO, X=S” value [1] was 0.092 ± 0.004 s⁻¹.

With dansyl-GCVLS the “Single turnover rate constant kSTO, X=S” value [1] was 3.8 ± 0.5 s⁻¹.

With dansyl-GCVRS the “apparent value for kcat/KM” value [2] was < 1000 M⁻¹ s⁻¹.

With dansyl-GCVGM the “Single turnover rate constant kSTO, X=M” value ([1]; dansyl-GCVa2M panel) was 0.26 ± 0.01 s⁻¹.
